The text below walks through data of patent US5925769A, “Acetylenic 1,5-diarylpyrazoles as antiinflammatory agents” (Ortho Pharmaceutical, Corp., priority 1998, dated 1999).

For test [1], the target named is T1, Sheep seminal vesicle (SSV) cyclooxygenase (Ovis aries, UniProt P05979).
T1 construct: Sheep seminal vesicle (SSV) cyclooxygenase (95% pure); purchased Biomol (Plymouth Meeting, PA); host or cells: sheep seminal vesicle
T1 sequence (P05979 25-600): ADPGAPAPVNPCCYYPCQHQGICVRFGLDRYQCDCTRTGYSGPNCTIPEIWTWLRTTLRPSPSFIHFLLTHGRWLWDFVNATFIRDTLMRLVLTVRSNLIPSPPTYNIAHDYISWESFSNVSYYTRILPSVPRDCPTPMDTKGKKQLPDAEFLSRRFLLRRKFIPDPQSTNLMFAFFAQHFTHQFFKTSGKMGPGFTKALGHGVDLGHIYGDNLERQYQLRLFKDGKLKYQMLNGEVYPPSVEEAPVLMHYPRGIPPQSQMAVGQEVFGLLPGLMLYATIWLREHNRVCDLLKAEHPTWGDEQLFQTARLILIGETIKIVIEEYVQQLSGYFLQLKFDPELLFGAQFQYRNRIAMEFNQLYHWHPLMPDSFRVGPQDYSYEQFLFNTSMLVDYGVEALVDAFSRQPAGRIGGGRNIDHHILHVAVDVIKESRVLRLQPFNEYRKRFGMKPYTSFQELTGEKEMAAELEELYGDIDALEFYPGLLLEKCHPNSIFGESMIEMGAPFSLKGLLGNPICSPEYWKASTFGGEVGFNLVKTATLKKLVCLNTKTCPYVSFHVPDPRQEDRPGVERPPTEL
The test can be described thus: Procedure I: inhibition of sheep seminal vesicle (SSV) cyclooxygenase. It counts as biochemical. Particulars: SSV cyclooxygenase; read-out: Proc. I IC50. The gist of the method:
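Sheep seminal vesicle cyclooxygenase was preincubated with compound for 5 min at 37° C, then reacted with [1-14C]-arachidonic acid for 20 min. After formic acid stop and chloroform extraction, radioactive prostaglandin products were separated by TLC and scanned. Inhibition was derived from areas under the curve with and without compound.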

The target of test [2] is T2, 5-LO (Rattus norvegicus, UniProt P12527).
T2 construct: the supernatant was saved as the source of enzymes; endogenous in cells; host or cells: RBL-1 (rat basophilic leukemia) cells
T2 sequence (P12527 1-673): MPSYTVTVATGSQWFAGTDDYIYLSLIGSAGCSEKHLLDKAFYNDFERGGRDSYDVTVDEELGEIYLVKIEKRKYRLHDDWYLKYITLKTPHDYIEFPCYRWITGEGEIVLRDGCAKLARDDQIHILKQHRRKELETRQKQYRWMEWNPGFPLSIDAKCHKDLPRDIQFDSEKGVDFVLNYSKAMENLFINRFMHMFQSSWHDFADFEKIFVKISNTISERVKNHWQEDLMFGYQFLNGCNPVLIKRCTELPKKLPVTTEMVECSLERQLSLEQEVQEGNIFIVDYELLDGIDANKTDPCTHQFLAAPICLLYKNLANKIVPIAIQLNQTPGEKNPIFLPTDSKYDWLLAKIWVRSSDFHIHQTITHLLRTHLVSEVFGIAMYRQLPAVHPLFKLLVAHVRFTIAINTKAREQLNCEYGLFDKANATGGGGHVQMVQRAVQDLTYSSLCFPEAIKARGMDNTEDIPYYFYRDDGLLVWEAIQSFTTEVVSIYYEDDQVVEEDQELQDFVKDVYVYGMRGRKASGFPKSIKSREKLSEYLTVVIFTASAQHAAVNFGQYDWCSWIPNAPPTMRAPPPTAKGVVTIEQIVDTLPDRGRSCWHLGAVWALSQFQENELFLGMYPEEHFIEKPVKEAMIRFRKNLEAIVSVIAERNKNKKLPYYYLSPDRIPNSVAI
Put plainly: Procedure II: 5-LO activity (5-HETE) in broken RBL-1 cells (homogenate supernatant). The test is classed as biochemical. Particulars: RBL-1 broken cell supernatant; read-out: Proc. II 5-LO IC50. The gist of the method: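 Supernatant from rat RBL-1 homogenate (9,220×g) was pre-incubated 5 min at 37 °C with 2 mM CaCl2 and compound or 1% DMSO, then with 1-^14C-arachidonic acid for 20 min at 37 °C.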

As for `COc1ccc(-n2nc(C#CCN(O)C(N)=O)cc2-c2ccc(C)cc2)cc1` [Cpd 1, N-Hydroxy-N-(1(1-(4-methoxyphenyl)-5-(4-methylphenyl)pyrazol-3-yl)-1-propyn-3-yl)urea], the IC50 in test [1] came to 1020 nM; in test [2] it was 70 nM.
